These results are taken from US20260305620A1, “NOVEL INSECTICIDAL MIXTURES FOR CONTROLLING AND PROTECTING CROPS” (ADAMA MAKHTESHIM LTD., priority 2023, published 2026).

Where two headings read alike, the source gives them in different places.

The test system of this data set is Aphis gossypii. Briefly: Mortality of Aphis gossypii adults + progeny on sprayed pepper leaf disks; synergy/antagonism of garlic extract mixtures by Colby's formula. The format is in vivo, Aphis gossypii (cotton aphid). Particulars: for mortality at 0.2 ppm: 0.2 ppm ai; for mortality at 0.1 ppm: 0.1 ppm ai; for mortality at 0.8 ppm: read-out: Mortality Observed, alone, 0.8 ppm ai; for mortality at 5 ppm: read-out: Mortality Observed, alone, 5 ppm ai. The method, then: Evaluating the synergistic or antagonistic effects of garlic extract and other insecticides on Aphis gossypii in pepper crop.
Pepper plants of Makko F1 cv, obtained from seeds, were grown at totally controlled conditions in a growing chamber. Healthy and untreated Pepper plants were used at least two months after seeding to get leaf disks suitable to be exposed to Aphis gossypii adults.
The aphids' adults were obtained from mass rearing; aphids were reared on cucumber and zucchini plants under controlled environmental conditions.
Suitable leaves were collected from pepper plants. Leaf disks were prepared together with arenas containing a layer of water agar on the base. 8 leaf disks per treatment were obtained from the collected leaves and 20 adults/arena were inoculated.
Each arena was sprayed, using an electric low pressure hand sprayer, with the corresponding insecticide mixture. Tween 80 surfactant, at the rate of 0.05% was added in each treatment mixture.
The untreated check was sprayed with distilled water together with Tween 80 surfactant at a dose of 0.05%.
The experimental arenas were kept in a growth chamber under controlled climatic conditions: 21° C. (±0.5), 60% RH and 16:8 light:dark photoperiod regime. The assessment of mortality (as % of died adults+progeny) was performed according to the characteristics of each Active Ingredient.
Garlic extract a) and the additional pesticide b) were priorly calibrated to obtain the Dose Response Curve and the Lethal Dose (ppm) values; according to the calibrations the mixing protocols were obtained at the proper mixing ratios.
All the statistical procedures [Student-Newman-Keuls (SNK), Dose response analysis (Probit, confidence level 95%) Anova and other calculation analysis] were performed using the ARM 2020.0 software.
The evaluation of Synergy or Antagonism of the two active ingredients was performed by using the Colby's formula, above described: […]
in which E represents the expected percentage of insecticidal control for the combination of the two insecticides at defined doses, A is the percentage of insecticidal control observed by the compound (I) at a defined dose (for example, a), B is the percentage of insecticidal control observed by the compound (II) at a defined dose (for example, b). When the ratio between the observed percentage of insecticidal control for the combination of the two insecticides at defined doses and the expected percentage of insecticidal control for the combination of the two insecticides at defined doses is greater than 1.15, the effect is synergistic.

[1] abbreviates: Aphis gossypii, foliar, alone, read-out: Mortality Observed.
Where [2] appears, read: Aphis gossypii, foliar, read-out: Mortality Observed, alone, 1 ppm ai.
The mark [3] stands for this setting: Aphis gossypii, foliar, alone, 1 ppm ai, read-out: Mortality Observed.
Setting [4] is: Aphis gossypii, foliar, alone, 2 ppm ai, read-out: Mortality Observed.

With `CC1(C)[C@H](C(=O)O[C@H](C#N)c2cccc(Oc3ccccc3)c2)[C@@H]1/C=C(\Cl)C(F)(F)F` (racemic) [Lambda cyhalothrin, lambda-cyhalothrin], the mortality at 0.2 ppm under setting [1] came to 32.1%. The mortality at 0.4 ppm (Aphis gossypii, foliar, alone, 0.4 ppm ai, read-out: Mortality Observed) stood at 37.6%.

On to `C/C(=N\C#N)N(C)Cc1ccc(Cl)nc1` [Acetamiprid, acetamiprid], for which the mortality at 0.01 ppm (Aphis gossypii, foliar, alone, 0.01 ppm ai, read-out: Mortality Observed) was 48.9%. The mortality at 0.05 ppm (Aphis gossypii, foliar, alone, 0.05 ppm ai, read-out: Mortality Observed) was determined as 25%. Moreover, the mortality at 0.1 ppm under setting [1] was determined as 48.9%.

Take `C[C@]1(COC(=O)C2CC2)[C@@H]2C[C@H](O)[C@@]3(C)Oc4cc(-c5cccnc5)oc(=O)c4[C@H](O)[C@@H]3[C@@]2(C)CC[C@@H]1OC(=O)C1CC1` [Afidopyropen, afidopyropen]: under “Aphis gossypii, foliar, read-out: Mortality Observed, alone, 0.02 ppm ai”, the mortality at 0.02 ppm was found to be 25.3%. Further, the mortality at 1 ppm under setting [2] amounted to 37.3%. The mortality at 2 ppm (Aphis gossypii, foliar, read-out: Mortality Observed, alone, 2 ppm ai) was 49.4%.

`C/C=C(\C)C(=O)O[C@H]1C[C@@H](OC(C)=O)[C@@]2(C(=O)OC)CO[C@H]3[C@@H](O)[C@@](C)([C@]45O[C@@]4(C)[C@H]4C[C@@H]5O[C@@H]5OC=C[C@@]54O)[C@H]4[C@]1(CO[C@]4(O)C(=O)OC)[C@@H]32` [Azadirachtin, azadirachtin]: the mortality at 1 ppm under setting [3] is 22.7%. In addition, the mortality at 2 ppm under setting [4] was found to be 28.9%.

On to `FC(F)(F)c1ccc(COc2ncncc2C2OCCCO2)cc1` [Benzpyrimoxan, benzpyrimoxan], for which, under “Aphis gossypii, foliar”, the mortality at 0.8 ppm came to 8.2% and the mortality at 5 ppm came out at 42%.

Turning to `CC(C)c1cc(Oc2ccccc2)cc(C(C)C)c1NC(=S)NC(C)(C)C` [Diafenthiuron, diafenthiuron], the mortality at 1 ppm under setting [2] is 22.7%. The mortality at 5 ppm (Aphis gossypii, foliar) amounted to 26%. In addition, the “Mortality Observed” value (alone, 5 ppm ai) is reported as 26.22%.

For `N#Cc1nn(-c2c(Cl)cc(C(F)(F)F)cc2Cl)c(N)c1[S+]([O-])C(F)(F)F` (stereo not shown) [Fipronil, fipronil], under setting [1], the mortality at 0.1 ppm worked out at 35%. Also, for the setting “Aphis gossypii, foliar, alone, 0.5 ppm ai, read-out: Mortality Observed”, the mortality at 0.5 ppm amounted to 43.2%.

In the case of `N#CCNC(=O)c1cnccc1C(F)(F)F` [Flonicamid, flonicamid], the “Mortality Observed” value was 31.4% (alone, 1 ppm ai) and 27.2% (alone, 2 ppm ai).

As for `CC(=O)N1C(=O)N(NCc2cccnc2)Cc2cc(C(F)(C(F)(F)F)C(F)(F)F)ccc21` [Pyrifluquinazon, pyrifluquinazon], the mortality at 0.08 ppm (Aphis gossypii, foliar, read-out: Mortality Observed, alone, 0.08 ppm ai) was 24.9%. Moreover, under “Aphis gossypii, foliar, read-out: Mortality Observed, alone, 0.5 ppm ai”, the mortality at 0.5 ppm was 42.7%. Further, the mortality at 0.8 ppm (Aphis gossypii, foliar) was determined as 47.6%.

In the case of `CCOC(=O)OC1=C(c2cc(C)ccc2C)C(=O)N[C@]12CC[C@@H](OC)CC2` [Spirotetramat, spirotetramat], under setting [3], the mortality at 1 ppm was determined as 23.5%. Moreover, under setting [4], the mortality at 2 ppm was 44.4%.

As for `CC(C)[C@@H](Nc1ccc(C(F)(F)F)cc1Cl)C(=O)OC(C#N)c1cccc(Oc2ccccc2)c1` (stereo partly shown) [Tau fluvalinate, tau-fluvalinate], under setting [1], the mortality at 0.1 ppm is 28.1% and the mortality at 0.2 ppm stood at 47.9%.

Take `CCc1nn(C)c(C(=O)NCc2ccc(Oc3ccc(C)cc3)cc2)c1Cl` [Tolfenpyrad, tolfenpyrad]: the mortality at 0.2 ppm under setting [1] turned out to be 15.9%. Moreover, the mortality at 1 ppm under setting [3] came out at 39.3%.
